For two compounds, Activity and Time results are on record in ChEMBL document CHEMBL3044856, “Molecular docking of glycogen synthase kinase3- inhibitor oleanolic acid and its wound-healing activity in rats” (Med Chem Res, 2013).

Data set [1] concerns Mus musculus. The data set is described as follows: Wound-healing activity in Swiss albino Mus musculus (mouse) incision wound model assessed as increase in tensil strength of incision wound at 12 mg/kg/day, ip measured on day 10 (reference value: 356.13 +/- 14.55 g). The class given is functional. Conditions: route intraperitoneal.
The subject of data set [2] is Mus musculus. The data set is described as follows: Wound-healing activity in Swiss albino Mus musculus (mouse) excision wound model assessed as time required for complete epithelialization of excision wound at 3 mg/ml, ip (reference value: 22.75 +/- 0.13 days). Type of data set: functional.
Data set [3] deals with Mus musculus. The data set is described as follows: Wound-healing activity in Swiss albino Mus musculus (mouse) excision wound model assessed as closure of excision wound area at 3 mg/ml, ip measured on day 12 (reference value: 66.04 +/- 0.94%). Type of data set: functional.
Data set [4] concerns Mus musculus. The data set is described as follows: Wound-healing activity in Swiss albino Mus musculus (mouse) dead space wound model assessed as increase in tissue breaking strength at 3 mg/ml, ip measured on day 10 (reference value: 366.32 +/- 14.40 g). The class given is functional.
Data set [5] has as its system Mus musculus. The data set is described as follows: Wound-healing activity in Swiss albino Mus musculus (mouse) assessed as increase in collagenation in granulation tissue at 3 mg/ml, ip measured on day 10 by hematoxylin and eosin staining-based histological analysis relative to untreated control. Type of data set: functional, organism-based.
Data set [6] deals with Mus musculus. Briefly: Wound-healing activity in Swiss albino Mus musculus (mouse) dead space wound model assessed as increase in dry weight of granuloma tissue at 3 mg/ml, ip measured on day 10 (reference value: 11.52 +/- 0.9 mg). Type of data set: functional.
In data set [7] the test system is Mus musculus. The data set is described as follows: Wound-healing activity in Swiss albino Mus musculus (mouse) excision wound model assessed as closure of excision wound area at 3 mg/ml, ip measured on day 16 (reference value: 81.36 +/- 0.83%). Type of data set: functional.
The test system of data set [8] is Mus musculus. Briefly: Wound-healing activity in Swiss albino Mus musculus (mouse) dead space wound model assessed as increase in wet weight of granuloma tissue at 3 mg/ml, ip measured on day 10 (reference value: 79.56 +/- 1.05 mg). The class given is functional.
Data set [9] has as its system Mus musculus. Briefly: Wound-healing activity in Swiss albino Mus musculus (mouse) excision wound model assessed as closure of excision wound area at 3 mg/ml, ip measured on day 4 (reference value: 25.32 +/- 3.31%). The class given is functional.
Data set [10] relates to Mus musculus. The data set is described as follows: Acute toxicity in Swiss albino Mus musculus (mouse) assessed as mortality up to 120 mg/kg, ip. The class given is organism-based. The settings on record: in vivo. More on the design: dose 120 mg/kg, route intraperitoneal.
Data set [11] has as its system Mus musculus. Briefly: Acute toxicity in Swiss albino Mus musculus (mouse) assessed as abnormal behavior up to 120 mg/kg, ip. The class given is organism-based. More on the design: dose 120 mg/kg, route intraperitoneal. The settings on record: in vivo.
The subject of data set [12] is Mus musculus. The data set is described as follows: Wound-healing activity in Swiss albino Mus musculus (mouse) assessed as decrease in macrophage accumulation in granulation tissue at 3 mg/ml, ip measured on day 10 by hematoxylin and eosin staining-based histological analysis relative to untreated control. Type of data set: functional, organism-based.
For data set [13], the system named is Mus musculus. The data set is described as follows: Wound-healing activity in Swiss albino Mus musculus (mouse) dead space wound model assessed as increase in hydroxyproline content measured per 100 g of tissue at 3 mg/ml, ip measured on day 10 (reference value: 1411.15 +/- 6.26 ug). The class given is functional.
Data set [14] deals with Mus musculus. Briefly: Wound-healing activity in Swiss albino Mus musculus (mouse) excision wound model assessed as closure of excision wound area at 3 mg/ml, ip measured on day 8 (reference value: 54.64 +/- 1.17%). The class given is functional.
For data set [15], the system named is Mus musculus. The data set is described as follows: Wound-healing activity in ip dosed Swiss albino Mus musculus (mouse) excision wound model assessed as closure of excision wound area measured on day 12 (reference value: 66.04 +/- 0.94%). The class given is functional.
The test system of data set [16] is Mus musculus. The data set is described as follows: Wound-healing activity in ip dosed Swiss albino Mus musculus (mouse) assessed as decrease in macrophage accumulation in granulation tissue measured on day 10 by hematoxylin and eosin staining-based histological analysis relative to untreated control. Type of data set: functional, organism-based.
Data set [17] deals with Mus musculus. The data set is described as follows: Wound-healing activity in ip dosed Swiss albino Mus musculus (mouse) assessed as increase in collagenation in granulation tissue measured on day 10 by hematoxylin and eosin staining-based histological analysis relative to untreated control. Type of data set: functional, organism-based.
Data set [18] relates to Mus musculus. The data set is described as follows: Wound-healing activity in ip dosed Swiss albino Mus musculus (mouse) dead space wound model assessed as increase in tissue breaking strength measured on day 10 (reference value: 366.32 +/- 14.40 g). Type of data set: functional.
Data set [19] deals with Mus musculus. The data set is described as follows: Wound-healing activity in ip dosed Swiss albino Mus musculus (mouse) dead space wound model assessed as increase in wet weight of granuloma tissue measured on day 10 (reference value: 79.56 +/- 1.05 mg). Type of data set: functional.
For data set [20], the system named is Mus musculus. Briefly: Wound-healing activity in ip dosed Swiss albino Mus musculus (mouse) dead space wound model assessed as increase in dry weight of granuloma tissue measured on day 10 (reference value: 11.52 +/- 0.9 mg). The class given is functional.
The test system of data set [21] is Mus musculus. Briefly: Wound-healing activity in ip dosed Swiss albino Mus musculus (mouse) excision wound model assessed as closure of excision wound area measured on day 16 (reference value: 81.36 +/- 0.83%). The class given is functional.
Data set [22] has as its system Mus musculus. Briefly: Wound-healing activity in ip dosed Swiss albino Mus musculus (mouse) incision wound model assessed as increase in tensil strength of incision wound measured on day 10 (reference value: 356.13 +/- 14.55 g). The class given is functional.
The test system of data set [23] is Mus musculus. The data set is described as follows: Wound-healing activity in ip dosed Swiss albino Mus musculus (mouse) dead space wound model assessed as increase in hydroxyproline content measured per 100 g of tissue measured on day 10 (reference value: 1411.15 +/- 6.26 ug). The class given is functional.
The test system of data set [24] is Mus musculus. Briefly: Wound-healing activity in ip dosed Swiss albino Mus musculus (mouse) excision wound model assessed as time required for complete epithelialization of excision wound (reference value: 22.75 +/- 0.13 days). Type of data set: functional.
For data set [25], the system named is Mus musculus. Briefly: Wound-healing activity in ip dosed Swiss albino Mus musculus (mouse) excision wound model assessed as closure of excision wound area measured on day 8 (reference value: 54.64 +/- 1.17%). Type of data set: functional.
The subject of data set [26] is Mus musculus. Briefly: Wound-healing activity in ip dosed Swiss albino Mus musculus (mouse) excision wound model assessed as closure of excision wound area measured on day 4 (reference value: 25.32 +/- 3.31%). Type of data set: functional.

Active and inactive are the calls of the source. The rule behind the calls is not given here.

Consider `CC1(C)CC[C@]2(C(=O)O)CC[C@]3(C)C(=CC[C@@H]4[C@@]5(C)CC[C@H](O)C(C)(C)[C@@H]5CC[C@]43C)[C@@H]2C1` [OLEANOLIC_ACID], for which the Activity came to 580.83 g in the data set with Mus musculus [1]; 86.06% with Mus musculus [3]; 599.08 g in the data set with Mus musculus [4]; 26.25 mg in the data set with Mus musculus [6]; 96.82% in the data set on Mus musculus [7]; 127.12 mg in the data set with Mus musculus [8]. Further, the Activity in the data set with Mus musculus [9] was 36.13%; in the data set with Mus musculus [10] it was “Non-toxic”; in the data set on Mus musculus [11] it was “Non-toxic”; with Mus musculus [13], 2124.91 µg; in the data set on Mus musculus [14] it was 79.11%. Moreover, the Time in the data set with Mus musculus [2] came to 18.48 days. Moreover, the outcome with Mus musculus [5] and in the data set on Mus musculus [12] was Active.
Take `Nc1ccc(S(=O)(=O)Nc2nccs2)cc1` [SULFATHIAZOLE]: the Activity with Mus musculus [15] is on record as 84.46%; in the data set on Mus musculus [18], 617.39 g; with Mus musculus [19], 131.4 mg; in the data set on Mus musculus [20] it was 28.42 mg; in the data set with Mus musculus [21], 96.94%; with Mus musculus [22], 582.04 g. The Activity came to 2427.33 µg in the data set on Mus musculus [23], 74.54% with Mus musculus [25] and 39.94% in the data set with Mus musculus [26]. For the same compound, the outcome in the data set with Mus musculus [16] and in the data set on Mus musculus [17] was Active. Moreover, in the data set with Mus musculus [24], the Time worked out at 18.36 days.
